From ChEMBL document CHEMBL1159260, “Muricatocins A and B, two new bioactive monotetrahydrofuran Annonaceous acetogenins from the leaves of Annona muricata” (J Nat Prod, 1995)
Converted amounts (≈) assume the structure as drawn.

How the values were obtained:
[1] = system: MCF7; test: Cytotoxicity against human MCF7 cells after 7 days by MTT assay; format: functional; details: MCF7, 168 h, read-out: ED50 (the source's name)
[2] = Toxicity against brine shrimp; format: organism-based; details: artemia, in vivo
[3] = system: A549; test: Cytotoxicity against human A549 cells after 7 days by MTT assay; format: functional; details: A549, 168 h, read-out: ED50 (the source's name)
[4] = system: HT-29; test: Cytotoxicity against human HT-29 cells after 7 days by MTT assay; format: functional; details: HT-29, 168 h, read-out: ED50 (the source's name)

## CCCCCCCCCCCC[C@H](O)[C@H]1CC[C@H]([C@H](O)CC[C@H]2C[C@@H](CCCCC[C@@H](O)CC3=C[C@H](C)OC3=O)OC(C)(C)O2)O1
[1]
  EC50: 0.878 µg/mL (≈ 1.34 µM)
[2]
  LC50: 0.266 µg/mL (≈ 0.407 µM)
[3]
  EC50: 7.18 ng/mL (≈ 0.011 µM)
[4]
  EC50: > 1 µg/mL

## COc1cccc2c1C(=O)c1c(O)c3c(c(O)c1C2=O)C[C@@](O)(C(=O)CO)C[C@@H]3O[C@H]1C[C@H](N)[C@H](O)[C@H](C)O1 [DOXORUBICIN]
[1]
  EC50: 0.142 µg/mL (≈ 0.261 µM)
[3]
  EC50: 3.56 ng/mL (≈ 0.00655 µM)

## CCCCCCCCCCCC[C@H](O)[C@H]1CC[C@H]([C@H](O)CC[C@H](O)C[C@H](O)CCCCC[C@@H](O)CC2=C[C@H](C)OC2=O)O1 [MURICATOCIN B]
[1]
  EC50: 0.103 µg/mL (≈ 0.168 µM)
[2]
  LC50: 0.557 µg/mL (≈ 0.909 µM)
[3]
  EC50: 334 ng/mL (≈ 0.545 µM)
[4]
  EC50: 1.66 µg/mL (≈ 2.71 µM)

## CCCCCCCCCCCC[C@@H](O)[C@H]1CC[C@H]([C@H](O)CC[C@H]2C[C@@H](CCCCC[C@@H](O)CC3=C[C@H](C)OC3=O)OC(C)(C)O2)O1
[1]
  EC50: 0.165 µg/mL (≈ 0.253 µM)
[2]
  LC50: 0.206 µg/mL (≈ 0.315 µM)
[3]
  EC50: 3.67 ng/mL (≈ 0.00562 µM)
[4]
  EC50: 0.508 µg/mL (≈ 0.778 µM)

## CCCCCCCCCCCC[C@@H](O)[C@H]1CC[C@H]([C@H](O)CC[C@H](O)C[C@H](O)CCCCC[C@@H](O)CC2=C[C@H](C)OC2=O)O1 [MURICATOCIN A]
[1]
  EC50: 0.123 µg/mL (≈ 0.201 µM)
[2]
  LC50: 0.699 µg/mL (≈ 1.14 µM)
[3]
  EC50: 75.5 ng/mL (≈ 0.123 µM)
[4]
  EC50: 1.56 µg/mL (≈ 2.55 µM)
